Results: ChEMBL document CHEMBL5653615 (J Biol Chem, 2013)

Assays:
[1] = target: Serine/threonine-protein kinase pim-3 (Homo sapiens) (UniProt Q86V86); test: Inhibition of human PIM3 at 18.6 nM by HotSpot assay relative to control
[2] = target: T1, Dual specificity tyrosine-phosphorylation-regulated kinase 2 (Homo sapiens) (UniProt Q92630); test: Inhibition of human DYRK2 at 18.6 nM by HotSpot assay relative to control
T1 sequence (whole entry): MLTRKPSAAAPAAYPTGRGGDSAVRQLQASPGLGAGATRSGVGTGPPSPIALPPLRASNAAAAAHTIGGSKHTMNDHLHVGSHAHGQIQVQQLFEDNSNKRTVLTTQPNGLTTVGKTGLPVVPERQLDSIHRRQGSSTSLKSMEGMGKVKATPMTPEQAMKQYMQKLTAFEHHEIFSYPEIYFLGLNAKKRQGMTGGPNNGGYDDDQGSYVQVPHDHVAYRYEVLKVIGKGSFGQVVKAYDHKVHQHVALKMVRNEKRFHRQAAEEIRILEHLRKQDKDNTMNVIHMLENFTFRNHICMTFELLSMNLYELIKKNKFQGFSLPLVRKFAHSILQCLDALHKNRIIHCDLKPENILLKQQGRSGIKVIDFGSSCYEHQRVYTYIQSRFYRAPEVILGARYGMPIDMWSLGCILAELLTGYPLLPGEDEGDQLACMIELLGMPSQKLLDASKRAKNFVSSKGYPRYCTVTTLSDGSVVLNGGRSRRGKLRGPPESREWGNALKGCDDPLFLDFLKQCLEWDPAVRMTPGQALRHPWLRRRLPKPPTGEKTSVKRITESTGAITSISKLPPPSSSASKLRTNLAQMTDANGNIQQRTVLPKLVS

[3] = target: Serine/threonine-protein kinase N2 (Homo sapiens) (UniProt Q16513); test: Inhibition of human PRK2 at 18.6 nM by HotSpot assay relative to control
Chain of Serine/threonine-protein kinase N2 (Homo sapiens) (Q16513 whole entry, looked up, canonical isoform): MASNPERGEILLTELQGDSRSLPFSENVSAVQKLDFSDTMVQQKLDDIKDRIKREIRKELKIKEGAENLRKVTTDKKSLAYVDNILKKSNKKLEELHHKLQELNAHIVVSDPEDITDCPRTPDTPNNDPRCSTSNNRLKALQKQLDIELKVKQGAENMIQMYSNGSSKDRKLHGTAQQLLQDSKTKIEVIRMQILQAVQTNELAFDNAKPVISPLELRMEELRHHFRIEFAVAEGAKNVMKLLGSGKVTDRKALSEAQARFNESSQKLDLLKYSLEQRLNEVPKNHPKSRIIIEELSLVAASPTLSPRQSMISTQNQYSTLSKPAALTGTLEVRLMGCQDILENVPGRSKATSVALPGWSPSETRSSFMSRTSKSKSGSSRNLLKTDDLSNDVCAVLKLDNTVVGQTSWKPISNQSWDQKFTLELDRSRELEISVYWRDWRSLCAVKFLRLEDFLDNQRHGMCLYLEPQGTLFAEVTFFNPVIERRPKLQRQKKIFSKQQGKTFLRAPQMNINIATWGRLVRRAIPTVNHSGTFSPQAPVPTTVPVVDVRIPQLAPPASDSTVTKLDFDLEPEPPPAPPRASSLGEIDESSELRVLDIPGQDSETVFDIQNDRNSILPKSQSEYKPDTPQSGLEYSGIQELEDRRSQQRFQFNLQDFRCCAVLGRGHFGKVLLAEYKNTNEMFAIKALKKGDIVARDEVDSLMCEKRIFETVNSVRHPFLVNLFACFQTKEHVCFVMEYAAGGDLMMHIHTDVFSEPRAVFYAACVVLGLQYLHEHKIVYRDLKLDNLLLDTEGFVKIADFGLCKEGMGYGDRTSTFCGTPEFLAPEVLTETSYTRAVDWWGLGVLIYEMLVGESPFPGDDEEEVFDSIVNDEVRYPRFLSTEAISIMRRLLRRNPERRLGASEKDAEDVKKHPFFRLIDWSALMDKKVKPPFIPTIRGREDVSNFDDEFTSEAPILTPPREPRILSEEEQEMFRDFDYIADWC

[4] = target: Casein kinase I isoform epsilon (Homo sapiens) (UniProt P49674); test: Inhibition of human CK1epsilon at 18.6 nM by HotSpot assay relative to control
Chain of Casein kinase I isoform epsilon (Homo sapiens) (P49674 whole entry, looked up, canonical isoform): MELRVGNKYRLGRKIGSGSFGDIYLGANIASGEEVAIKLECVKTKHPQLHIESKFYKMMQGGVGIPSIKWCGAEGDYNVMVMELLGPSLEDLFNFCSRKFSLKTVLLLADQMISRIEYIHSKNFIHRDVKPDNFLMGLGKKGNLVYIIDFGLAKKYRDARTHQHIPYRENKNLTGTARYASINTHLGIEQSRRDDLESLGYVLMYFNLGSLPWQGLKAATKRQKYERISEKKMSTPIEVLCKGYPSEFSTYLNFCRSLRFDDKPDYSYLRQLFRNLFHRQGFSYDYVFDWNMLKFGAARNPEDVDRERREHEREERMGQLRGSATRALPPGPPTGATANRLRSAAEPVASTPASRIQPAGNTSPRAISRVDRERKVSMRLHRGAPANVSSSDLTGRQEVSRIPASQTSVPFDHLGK

[5] = target: T2, Dual specificity tyrosine-phosphorylation-regulated kinase 4 (Homo sapiens) (UniProt Q9NR20); test: Inhibition of human DYRK4 at 18.6 nM by HotSpot assay relative to control
T2 sequence (whole entry): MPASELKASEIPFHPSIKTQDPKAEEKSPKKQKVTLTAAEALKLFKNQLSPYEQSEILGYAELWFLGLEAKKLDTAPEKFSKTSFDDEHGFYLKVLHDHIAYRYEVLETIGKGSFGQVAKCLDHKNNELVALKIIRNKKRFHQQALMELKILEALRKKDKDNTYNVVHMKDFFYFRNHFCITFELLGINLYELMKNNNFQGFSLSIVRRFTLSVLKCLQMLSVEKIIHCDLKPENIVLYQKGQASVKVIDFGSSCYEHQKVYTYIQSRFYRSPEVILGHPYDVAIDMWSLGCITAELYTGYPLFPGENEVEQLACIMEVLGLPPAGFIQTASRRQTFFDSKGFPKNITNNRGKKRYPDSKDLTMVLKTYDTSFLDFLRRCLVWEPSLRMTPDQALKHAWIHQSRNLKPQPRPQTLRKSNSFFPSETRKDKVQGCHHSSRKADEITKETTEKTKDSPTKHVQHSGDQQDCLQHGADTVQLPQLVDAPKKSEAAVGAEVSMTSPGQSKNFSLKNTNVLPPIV

[6] = target: RAC-beta serine/threonine-protein kinase (Homo sapiens) (UniProt P31751); test: Inhibition of human AKT2 at 18.6 nM by HotSpot assay relative to control
Chain of RAC-beta serine/threonine-protein kinase (Homo sapiens) (P31751 whole entry): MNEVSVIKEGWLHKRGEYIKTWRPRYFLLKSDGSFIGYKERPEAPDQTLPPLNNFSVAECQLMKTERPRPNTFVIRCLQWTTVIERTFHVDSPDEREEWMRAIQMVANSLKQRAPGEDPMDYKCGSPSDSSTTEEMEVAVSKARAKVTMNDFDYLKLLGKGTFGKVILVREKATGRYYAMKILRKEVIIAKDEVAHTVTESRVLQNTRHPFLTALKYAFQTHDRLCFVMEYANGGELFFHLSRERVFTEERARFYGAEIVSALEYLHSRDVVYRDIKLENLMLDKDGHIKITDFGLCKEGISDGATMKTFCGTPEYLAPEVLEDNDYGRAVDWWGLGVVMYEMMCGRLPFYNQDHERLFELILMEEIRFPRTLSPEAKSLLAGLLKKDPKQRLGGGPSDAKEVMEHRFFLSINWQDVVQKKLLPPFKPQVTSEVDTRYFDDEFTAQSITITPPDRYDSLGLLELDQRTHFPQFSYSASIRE

[7] = target: Mitogen-activated protein kinase kinase kinase 9 (Homo sapiens) (UniProt P80192); test: Inhibition of human MAP3K9 at 18.6 nM by HotSpot assay relative to control
Chain of Mitogen-activated protein kinase kinase kinase 9 (Homo sapiens) (P80192 whole entry, looked up): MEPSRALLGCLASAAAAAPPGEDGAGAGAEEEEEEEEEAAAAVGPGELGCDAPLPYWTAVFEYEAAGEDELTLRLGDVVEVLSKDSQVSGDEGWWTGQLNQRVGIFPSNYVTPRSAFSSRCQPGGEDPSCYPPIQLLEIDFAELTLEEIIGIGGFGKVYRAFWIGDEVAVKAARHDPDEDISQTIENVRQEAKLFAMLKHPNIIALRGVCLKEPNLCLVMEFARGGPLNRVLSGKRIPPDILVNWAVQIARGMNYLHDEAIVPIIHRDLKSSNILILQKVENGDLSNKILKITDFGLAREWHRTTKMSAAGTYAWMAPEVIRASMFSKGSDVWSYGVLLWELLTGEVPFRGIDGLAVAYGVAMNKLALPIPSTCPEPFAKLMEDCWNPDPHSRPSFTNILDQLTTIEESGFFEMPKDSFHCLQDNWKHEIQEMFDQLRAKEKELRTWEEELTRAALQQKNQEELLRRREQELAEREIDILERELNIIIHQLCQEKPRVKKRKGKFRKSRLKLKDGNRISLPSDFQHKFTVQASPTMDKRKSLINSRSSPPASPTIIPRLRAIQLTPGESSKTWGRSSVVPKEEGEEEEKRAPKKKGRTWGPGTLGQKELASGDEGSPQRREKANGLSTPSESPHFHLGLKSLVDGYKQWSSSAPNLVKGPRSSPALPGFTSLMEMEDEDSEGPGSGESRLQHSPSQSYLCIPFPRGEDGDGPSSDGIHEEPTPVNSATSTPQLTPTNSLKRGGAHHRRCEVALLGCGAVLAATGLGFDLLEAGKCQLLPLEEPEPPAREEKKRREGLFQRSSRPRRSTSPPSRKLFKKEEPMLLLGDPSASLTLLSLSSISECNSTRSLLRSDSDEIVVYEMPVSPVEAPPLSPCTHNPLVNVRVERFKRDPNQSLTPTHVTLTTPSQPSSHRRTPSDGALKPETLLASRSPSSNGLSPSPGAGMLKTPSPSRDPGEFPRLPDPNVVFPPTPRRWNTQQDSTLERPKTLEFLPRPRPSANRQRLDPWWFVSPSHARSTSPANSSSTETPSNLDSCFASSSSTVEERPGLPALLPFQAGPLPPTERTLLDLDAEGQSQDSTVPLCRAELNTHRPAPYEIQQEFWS

[8] = target: Receptor-interacting serine/threonine-protein kinase 2 (Homo sapiens) (UniProt O43353); test: Inhibition of human RIPK2 at 18.6 nM by HotSpot assay relative to control
Chain of Receptor-interacting serine/threonine-protein kinase 2 (Homo sapiens) (O43353 whole entry, the tested form may be a part): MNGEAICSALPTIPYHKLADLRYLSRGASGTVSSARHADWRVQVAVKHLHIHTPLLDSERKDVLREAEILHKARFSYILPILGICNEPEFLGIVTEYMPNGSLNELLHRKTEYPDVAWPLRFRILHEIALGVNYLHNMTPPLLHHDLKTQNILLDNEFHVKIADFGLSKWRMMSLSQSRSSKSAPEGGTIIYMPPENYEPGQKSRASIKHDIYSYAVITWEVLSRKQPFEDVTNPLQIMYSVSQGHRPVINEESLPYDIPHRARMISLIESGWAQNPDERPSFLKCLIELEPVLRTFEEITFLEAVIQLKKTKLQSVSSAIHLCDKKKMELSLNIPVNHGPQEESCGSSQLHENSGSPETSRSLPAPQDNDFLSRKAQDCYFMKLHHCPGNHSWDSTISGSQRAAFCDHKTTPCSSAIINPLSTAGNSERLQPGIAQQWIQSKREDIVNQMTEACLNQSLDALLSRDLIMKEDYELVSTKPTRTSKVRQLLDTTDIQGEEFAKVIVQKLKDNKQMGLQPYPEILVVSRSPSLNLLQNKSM

[9] = target: T3, Discoidin domain-containing receptor 2 (Homo sapiens) (UniProt Q16832); test: Inhibition of human DDR2 at 1.82 nM by HotSpot assay relative to control
T3 sequence (whole entry): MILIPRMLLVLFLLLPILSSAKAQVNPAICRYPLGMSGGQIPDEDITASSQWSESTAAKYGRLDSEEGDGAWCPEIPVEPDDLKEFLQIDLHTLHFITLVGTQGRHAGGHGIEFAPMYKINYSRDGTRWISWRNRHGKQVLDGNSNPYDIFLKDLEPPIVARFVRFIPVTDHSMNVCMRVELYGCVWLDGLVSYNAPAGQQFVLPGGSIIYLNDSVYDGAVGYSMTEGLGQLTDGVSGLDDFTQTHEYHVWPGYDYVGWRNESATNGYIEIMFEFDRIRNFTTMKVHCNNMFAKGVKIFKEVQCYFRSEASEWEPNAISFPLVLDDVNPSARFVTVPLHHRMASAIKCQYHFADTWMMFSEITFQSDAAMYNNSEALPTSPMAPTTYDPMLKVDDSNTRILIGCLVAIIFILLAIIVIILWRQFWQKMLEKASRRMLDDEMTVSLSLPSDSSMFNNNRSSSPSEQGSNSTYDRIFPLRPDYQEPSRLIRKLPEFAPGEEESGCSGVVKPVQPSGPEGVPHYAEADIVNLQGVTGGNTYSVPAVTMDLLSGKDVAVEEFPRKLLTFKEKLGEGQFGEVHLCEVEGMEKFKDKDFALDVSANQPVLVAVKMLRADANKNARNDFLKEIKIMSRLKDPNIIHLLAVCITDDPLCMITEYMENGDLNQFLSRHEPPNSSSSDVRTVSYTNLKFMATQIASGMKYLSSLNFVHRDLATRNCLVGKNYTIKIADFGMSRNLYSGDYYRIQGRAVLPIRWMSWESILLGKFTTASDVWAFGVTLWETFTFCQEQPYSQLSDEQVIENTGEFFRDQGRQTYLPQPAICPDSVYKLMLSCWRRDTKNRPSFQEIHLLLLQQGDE

[10] = target: Receptor tyrosine-protein kinase erbB-4 (Homo sapiens) (UniProt Q15303); test: Inhibition of human ERBB4 at 1.82 nM by HotSpot assay relative to control
[11] = target: Serine/threonine-protein kinase MARK1 (Homo sapiens) (UniProt Q9P0L2); test: Inhibition of human MARK1 at 1.82 nM by HotSpot assay relative to control
Chain of Serine/threonine-protein kinase MARK1 (Homo sapiens) (Q9P0L2 whole entry, looked up, canonical isoform): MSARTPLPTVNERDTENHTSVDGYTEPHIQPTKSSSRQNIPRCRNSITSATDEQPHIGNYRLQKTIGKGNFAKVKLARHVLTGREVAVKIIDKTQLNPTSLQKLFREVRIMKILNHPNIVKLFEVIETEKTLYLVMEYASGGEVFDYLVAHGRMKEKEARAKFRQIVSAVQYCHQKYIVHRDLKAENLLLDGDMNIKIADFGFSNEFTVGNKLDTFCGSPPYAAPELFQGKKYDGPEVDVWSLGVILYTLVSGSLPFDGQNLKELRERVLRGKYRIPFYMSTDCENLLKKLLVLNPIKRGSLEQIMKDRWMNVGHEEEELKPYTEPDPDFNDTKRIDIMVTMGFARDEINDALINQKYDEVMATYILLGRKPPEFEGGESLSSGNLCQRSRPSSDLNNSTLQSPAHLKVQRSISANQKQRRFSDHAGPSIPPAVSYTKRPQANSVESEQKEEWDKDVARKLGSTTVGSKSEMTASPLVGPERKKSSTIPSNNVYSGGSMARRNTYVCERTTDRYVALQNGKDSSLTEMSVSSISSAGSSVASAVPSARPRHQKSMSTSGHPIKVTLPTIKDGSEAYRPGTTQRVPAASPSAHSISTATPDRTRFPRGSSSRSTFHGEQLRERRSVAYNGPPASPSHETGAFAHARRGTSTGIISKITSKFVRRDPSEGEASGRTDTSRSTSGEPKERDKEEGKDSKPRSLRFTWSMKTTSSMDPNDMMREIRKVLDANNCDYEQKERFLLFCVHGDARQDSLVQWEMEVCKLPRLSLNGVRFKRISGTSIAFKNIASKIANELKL

[12] = target: Casein kinase I isoform epsilon (Homo sapiens) (UniProt P49674); test: Inhibition of human CK1epsilon at 1.82 nM by HotSpot assay relative to control
[13] = target: Dual specificity tyrosine-phosphorylation-regulated kinase 1B (Homo sapiens) (UniProt Q9Y463); test: Inhibition of human DYRK1B at 1.82 nM by HotSpot assay relative to control
Chain of Dual specificity tyrosine-phosphorylation-regulated kinase 1B (Homo sapiens) (Q9Y463 whole entry, looked up): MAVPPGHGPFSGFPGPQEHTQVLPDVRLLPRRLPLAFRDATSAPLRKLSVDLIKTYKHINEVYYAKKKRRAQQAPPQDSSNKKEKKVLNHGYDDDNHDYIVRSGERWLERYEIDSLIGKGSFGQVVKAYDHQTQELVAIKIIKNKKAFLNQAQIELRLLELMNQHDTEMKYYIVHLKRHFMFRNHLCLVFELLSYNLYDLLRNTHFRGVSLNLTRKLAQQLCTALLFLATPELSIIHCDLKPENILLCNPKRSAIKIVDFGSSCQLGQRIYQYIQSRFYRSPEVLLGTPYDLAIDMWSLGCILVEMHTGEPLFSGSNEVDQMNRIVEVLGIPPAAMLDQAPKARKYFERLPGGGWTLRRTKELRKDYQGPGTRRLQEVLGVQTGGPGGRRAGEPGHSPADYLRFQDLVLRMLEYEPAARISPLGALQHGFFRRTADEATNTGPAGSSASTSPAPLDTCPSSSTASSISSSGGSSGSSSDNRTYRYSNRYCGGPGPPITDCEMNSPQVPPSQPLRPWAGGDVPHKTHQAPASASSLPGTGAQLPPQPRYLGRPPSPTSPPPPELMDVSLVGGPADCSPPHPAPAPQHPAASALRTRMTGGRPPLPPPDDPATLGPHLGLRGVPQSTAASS

inhibition [1] | inhibition [2] | inhibition [3] | inhibition [4] | inhibition [5] | inhibition [6] | inhibition [7] | inhibition [8] | inhibition [9] | inhibition [10] | inhibition [11] | inhibition [12] | inhibition [13] | SMILES
20.9% | -1.48% | 1.32% | 0.64% | -1.52% | 0.3% | -2.33% | 12.1% |  |  |  |  |  | C[C@]1(O)C[C@@H](c2nc(-c3ccc4ccc(-c5ccccc5)nc4c3)c3c(N)nccn32)C1
 |  |  |  |  |  |  |  | -7.91% | 3.49% | -3.41% | 1.26% | -1.57% | C[C@@]1(C(=O)Nc2ccc(F)nc2)CCCN1c1nc(Nc2cc(C3CC3)n[nH]2)c2cccn2n1
